What is called Ki is the dissociation constant of the complex between target and ligand, obtained from inhibition or displacement.

For this test, the target named is Voltage-dependent L-type calcium channel subunit alpha-1C (Rattus norvegicus, UniProt P22002). The test can be described thus: Displacement of [3H](+)-PN200-110 binding from calcium channels of rat cardiac membranes. Type of test: cell membranes, Membrane.
Sequence of Voltage-dependent L-type calcium channel subunit alpha-1C (P22002 whole entry): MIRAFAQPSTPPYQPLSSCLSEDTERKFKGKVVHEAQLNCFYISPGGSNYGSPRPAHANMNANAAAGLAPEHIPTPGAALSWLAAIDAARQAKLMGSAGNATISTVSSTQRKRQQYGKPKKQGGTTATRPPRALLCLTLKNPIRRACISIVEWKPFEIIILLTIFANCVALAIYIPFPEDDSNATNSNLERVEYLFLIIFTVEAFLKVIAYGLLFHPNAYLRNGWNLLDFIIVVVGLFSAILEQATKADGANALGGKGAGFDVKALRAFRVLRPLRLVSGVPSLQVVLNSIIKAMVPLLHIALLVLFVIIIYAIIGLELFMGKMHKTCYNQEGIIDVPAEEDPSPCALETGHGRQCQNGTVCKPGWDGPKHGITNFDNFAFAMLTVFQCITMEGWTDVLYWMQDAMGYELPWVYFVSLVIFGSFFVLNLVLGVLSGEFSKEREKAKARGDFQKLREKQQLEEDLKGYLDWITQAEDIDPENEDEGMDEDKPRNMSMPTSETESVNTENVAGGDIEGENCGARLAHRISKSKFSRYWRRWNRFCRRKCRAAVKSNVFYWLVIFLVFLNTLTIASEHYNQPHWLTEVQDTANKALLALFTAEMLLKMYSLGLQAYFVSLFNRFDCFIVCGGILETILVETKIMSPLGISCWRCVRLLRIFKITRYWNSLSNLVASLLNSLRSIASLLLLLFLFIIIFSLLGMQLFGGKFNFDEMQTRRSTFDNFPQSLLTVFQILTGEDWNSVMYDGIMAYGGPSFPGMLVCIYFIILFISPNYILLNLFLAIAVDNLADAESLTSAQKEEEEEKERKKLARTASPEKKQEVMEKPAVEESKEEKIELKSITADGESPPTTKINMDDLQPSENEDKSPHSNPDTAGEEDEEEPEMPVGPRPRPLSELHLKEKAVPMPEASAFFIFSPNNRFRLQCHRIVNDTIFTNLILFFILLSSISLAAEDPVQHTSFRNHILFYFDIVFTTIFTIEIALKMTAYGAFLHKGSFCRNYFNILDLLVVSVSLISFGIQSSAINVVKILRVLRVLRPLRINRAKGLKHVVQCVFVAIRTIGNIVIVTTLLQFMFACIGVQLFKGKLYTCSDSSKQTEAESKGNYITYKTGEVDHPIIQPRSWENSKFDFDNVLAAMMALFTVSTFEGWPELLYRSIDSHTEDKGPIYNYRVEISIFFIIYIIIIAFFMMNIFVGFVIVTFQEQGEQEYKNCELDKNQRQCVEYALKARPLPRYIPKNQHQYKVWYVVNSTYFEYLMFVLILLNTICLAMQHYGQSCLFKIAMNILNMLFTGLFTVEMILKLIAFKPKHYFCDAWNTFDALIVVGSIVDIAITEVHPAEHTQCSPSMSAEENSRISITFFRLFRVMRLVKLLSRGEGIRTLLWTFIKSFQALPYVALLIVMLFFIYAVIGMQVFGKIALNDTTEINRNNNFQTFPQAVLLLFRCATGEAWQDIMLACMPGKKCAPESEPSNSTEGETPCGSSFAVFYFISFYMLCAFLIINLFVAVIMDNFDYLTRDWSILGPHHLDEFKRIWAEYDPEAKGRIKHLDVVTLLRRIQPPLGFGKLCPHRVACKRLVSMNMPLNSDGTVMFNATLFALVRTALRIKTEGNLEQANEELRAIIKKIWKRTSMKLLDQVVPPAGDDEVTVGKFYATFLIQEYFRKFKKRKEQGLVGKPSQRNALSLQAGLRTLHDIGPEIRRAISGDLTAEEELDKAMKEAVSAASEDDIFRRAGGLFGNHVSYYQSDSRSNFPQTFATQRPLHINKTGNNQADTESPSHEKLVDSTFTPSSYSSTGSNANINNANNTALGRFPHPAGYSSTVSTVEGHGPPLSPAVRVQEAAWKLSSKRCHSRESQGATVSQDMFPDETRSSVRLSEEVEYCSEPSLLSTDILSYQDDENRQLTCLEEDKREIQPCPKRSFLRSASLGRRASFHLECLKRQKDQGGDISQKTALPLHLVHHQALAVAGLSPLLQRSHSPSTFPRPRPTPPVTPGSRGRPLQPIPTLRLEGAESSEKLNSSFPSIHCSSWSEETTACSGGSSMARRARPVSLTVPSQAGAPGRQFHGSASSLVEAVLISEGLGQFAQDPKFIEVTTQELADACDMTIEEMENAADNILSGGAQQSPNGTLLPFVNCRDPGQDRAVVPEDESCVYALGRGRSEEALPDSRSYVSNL
In the case of `CCOC(=O)C1=C(C)N=C(C)/C(=C(/O)OCC)C1c1c(C)noc1CCc1cccc2ccccc12` (stereo not drawn), the Ki worked out at 2.16 nM.

Consider `CCOC(=O)C1=C(C)N=C(C)/C(=C(/O)OCC)C1c1c(C)noc1CCc1ccccc1-c1ccccc1` (stereo not drawn), for which the Ki was 45.5 nM.

As to `CCOC(=O)C1=C(C)N=C(C)/C(=C(/O)OCC)C1c1c(C)noc1CCc1ccc2ccccc2c1` (stereo not drawn), the Ki stood at 10.7 nM.

For the origin of these results see ChEMBL document CHEMBL1132339, “Lipophilic 4-isoxazolyl-1,4-dihydropyridines: synthesis and structure-activity relationships” (J Med Chem, 1999).
